{
  "source": "paper PMC2213565",
  "about": "(The Journal of General Physiology, 2008)",
  "key": {"5-HT3A [1]": {"molecular_target": "T1, 5-HT3A (Mus musculus, UniProt P23979)", "T1 sequence (P23979 24-489)": "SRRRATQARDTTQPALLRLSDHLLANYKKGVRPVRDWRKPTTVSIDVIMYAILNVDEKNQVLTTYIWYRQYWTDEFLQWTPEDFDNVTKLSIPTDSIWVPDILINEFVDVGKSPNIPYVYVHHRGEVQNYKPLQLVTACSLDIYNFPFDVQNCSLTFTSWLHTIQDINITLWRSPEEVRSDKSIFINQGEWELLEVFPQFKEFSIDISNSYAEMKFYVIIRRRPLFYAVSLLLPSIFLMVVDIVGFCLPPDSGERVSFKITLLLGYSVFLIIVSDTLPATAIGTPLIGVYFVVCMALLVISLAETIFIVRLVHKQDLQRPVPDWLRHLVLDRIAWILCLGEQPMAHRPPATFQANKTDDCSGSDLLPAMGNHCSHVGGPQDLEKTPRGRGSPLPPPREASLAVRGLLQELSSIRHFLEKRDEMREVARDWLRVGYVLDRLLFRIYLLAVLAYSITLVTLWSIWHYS", "assay": "Whole cell patch clamp of HEK293T cells transiently expressing 5-HT3A", "format": "cell-based", "conditions": "HEK293T cells expressing 5-HT3A"}, "5-HT3A-glvM3M4 [2]": {"molecular_target": "T2, 5-HT3A-glvM3M4 (Mus musculus, UniProt P23979)", "T2 sequence (P23979 24-326 limits assumed)": "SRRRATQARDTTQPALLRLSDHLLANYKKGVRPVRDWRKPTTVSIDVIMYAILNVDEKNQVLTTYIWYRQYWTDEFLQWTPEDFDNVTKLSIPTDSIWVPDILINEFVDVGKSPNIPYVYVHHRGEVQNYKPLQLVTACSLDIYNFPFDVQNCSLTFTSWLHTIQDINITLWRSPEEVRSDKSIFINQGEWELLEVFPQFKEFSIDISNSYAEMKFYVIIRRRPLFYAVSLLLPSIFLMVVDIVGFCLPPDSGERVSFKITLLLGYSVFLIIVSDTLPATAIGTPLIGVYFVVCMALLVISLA", "assay": "Whole cell patch clamp of HEK293T cells transiently expressing 5-HT3A-glvM3M4", "format": "cell-based"}, "5-HT3A [3]": {"molecular_target": "T1, 5-HT3A", "assay": "Two-electrode voltage clamp of Xenopus oocytes expressing 5-HT3A wild type", "format": "cell-based"}, "5-HT3A-glvM3M4 [4]": {"molecular_target": "5-HT3A-glvM3M4 (Mus musculus, UniProt P23979)", "format": "cell-based"}, "mouse 5-HT3A receptors": {"molecular_target": "mouse 5-HT3A receptors", "conditions": "competitive antagonist; ref Costall et al., 1987; cited from earlier work"}},
  "note": "Like-named read-outs stand apart in the source and are kept apart here.",
  "data": [
    {"molecule": "NCCc1c[nH]c2ccc(O)cc12", "note": "[5-HT, 5-hydroxytryptamine]", "values": [
      {"measurement": "whole cell currents evoked", "setting": "5-HT3A [1]; 5-HT 1 μM", "result": "1 to 5", "unit": "nA"},
      {"measurement": "whole cell currents evoked", "setting": "5-HT3A-glvM3M4 [2]; HEK293T cells expressing 5-HT3A-glvM3M4, 5-HT 1 μM", "result": "1 to 5", "unit": "nA"}
    ]},
    {"molecule": "Cc1cccc(C)c1NC(=O)C[N+](C)(C)C", "note": "[QX-222]", "values": [
      {"measurement": "inhibition of 5-HT EC70 currents", "setting": "5-HT3A [3]; 5-HT3A-wt, QX-222 20 μM, n = 6", "result": "80 ± 4", "unit": "%"},
      {"measurement": "inhibition of 5-HT EC70 currents", "setting": "5-HT3A-glvM3M4 [4]; 5-HT3A-glvM3M4, QX-222 20 μM, n = 6", "result": "79 ± 2", "unit": "%"}
    ]},
    {"molecule": "COc1ccc([C@@H]2Sc3ccccc3N(CCN(C)C)C(=O)[C@@H]2OC(C)=O)cc1", "note": "[diltiazem]", "values": [
      {"measurement": "IC50", "setting": "5-HT3A [3]", "result": "16 ± 1", "unit": "µM"},
      {"measurement": "IC50", "setting": "5-HT3A-glvM3M4 [4]", "result": "12 ± 3", "unit": "µM"}
    ]},
    {"molecule": "Cc1nccn1CC1CCc2c(c3ccccc3n2C)C1=O", "note": "(centres unmarked) [ondansetron]", "values": [
      {"measurement": "inhibition of 5-HT currents", "setting": "5-HT3A [3]; 5-HT3A, EC30 concentration of 5-HT with ondansetron at 1/3 of the 5-HT concentration, n = 3", "result": "98.2 ± 0.4", "unit": "%"},
      {"measurement": "inhibition of 5-HT currents", "setting": "5-HT3A-glvM3M4 [4]; 5-HT3A-glvM3M4, EC30 concentration of 5-HT with ondansetron at 1/3 of the 5-HT concentration, n = 4", "result": "98.8 ± 0.4", "unit": "%"},
      {"measurement": "inhibition of whole cell currents evoked by 1 μM 5-HT", "setting": "5-HT3A [1]; 100 nM ondansetron", "result": "totally inhibited"},
      {"measurement": "inhibition of whole cell currents evoked by 1 μM 5-HT", "setting": "5-HT3A-glvM3M4 [2]; HEK293T cells expressing 5-HT3A-glvM3M4, 100 nM ondansetron", "result": "totally inhibited"},
      {"measurement": "IC50 for inhibition of mouse 5-HT3A receptors", "setting": "mouse 5-HT3A receptors", "result": "high picomolar"}
    ]},
    {"molecule": "picrotoxin", "values": [
      {"measurement": "IC50", "setting": "5-HT3A [3]; read-out: picrotoxin IC50, 5-HT3A-wt, coapplied with 5-HT EC30 concentration, n = 3", "result": "60 ± 10", "unit": "µM"},
      {"measurement": "fold lower IC50 in 5-HT3A-glvM3M4 than in wild type", "setting": "5-HT3A-glvM3M4 [4]; picrotoxin IC50, 5-HT3A-glvM3M4 versus 5-HT3A-wt", "result": 10, "unit": "fold"},
      {"measurement": "IC50", "setting": "5-HT3A-glvM3M4 [4]; read-out: picrotoxin IC50, 5-HT3A-glvM3M4, coapplied with 5-HT EC30 concentration, n = 6", "result": "6.8 ± 1.1", "unit": "µM"}
    ]}
  ]
}
